melting point [°C]	SMILES
171	O=[SH](=O)N(Cc1ccccc1)CC1CN(C(c2ccc(Cl)cc2)c2ccc(Cl)cc2)C1 [Example 23, N-Benzyl-N-{1-[bis(4-chlorophenyl)methyl]azetidin-3-yl}methylsulfonamide]
98	O=[SH](=O)N(Cc1cc(F)cc(F)c1)C1CN(C(c2ccc(F)cc2)c2ccc(F)cc2)C1 [Example 34, N-{1-[Bis(4-fluorophenyl)methyl]azetidin-3-yl}-N-(3,5-difluorophenyl)methylsulfonamide]

— patent US6355631B1, “Pharmaceutical compositions containing azetidine derivatives, novel azetidine derivatives and their preparation” (Aventis Pharma S.A., priority 2000, dated 2002)
